What was measured:
[1] = Stability data of process systems (Example 3-23); format: physicochemical; details: 7 days
Experimental: The following stability data was generated and referenced in one or more of the prior examples. Stability of the following systems were studied and found to be stable for at least 7 days: Stability of Compound 3 HCl in MeOH/TBME at 40° C.; Stability of reaction mixture at 40° C. (amount of maribavir); Stability of biphasic mixture at 40° C. (before extraction); Stability of biphasic mixture at 40° C. (during last NaCl washing); Stability of reaction mixture after final distillation step at Stability of biphasic mixture at 75° C.; Stability of reaction mixture after final distillation step at 90° C.; Stability of crystallization mixture after dosage of 2nd portion of toluene at reflux; Stability of crystallization at 20° C.; Stability of mixture during slurry wash at 20-25° C.; Stability of maribavir in the mother liquor at 20-25° C.; Stability of wet cake at 70° C.; and Stability of dry cake at 70° C.

[2] = format: physicochemical
Experimental: The following solubility data was generated and referenced in one or more of the prior examples. A mixture of approx. 2 g of maribavir and 5 mL solvent was stirred overnight in sealed vials at different temperatures. The clear supernatant solutions were sampled for […] assay. All examples were done in triplicates. Table 3-5. Maribavir solubilities in iPrOAc and toluene.

[3] = format: physicochemical; details: pH 4
Text: A preliminary test was done to determine the lower pH to be tested: Three samples of the biphasic mixture during 1st NaCl-wash was taken and adjusted separately to pH 4, 5, and 6. These samples were refluxed overnight and sampled for HPLC purity at different time points. […] It was observed that at lower pH values, some white precipitate occurred. This precipitate dissolved upon raising the pH with NaOH. It was assumed that this was the hydrochloride salt of maribavir. Upon further review, at pH<5.5, the precipitate occurred. Therefore, the lowest pH tested was 6. The distilled reaction mixtures were subjected to crystallization on a 400 ml Easymax scale.

Stability (time found stable) [1]: at least 7 days
Solubility in iPrOAc (in words) [2]: good solubility
Stability by HPLC purity (in words) [3]: perfect stability
SMILES: CC(C)Nc1nc2cc(Cl)c(Cl)cc2n1[C@H]1O[C@@H](CO)[C@H](O)[C@@H]1O [Maribavir, (2S,3S,4R,5S)-2-(5,6-dichloro-2-(isopropylamino)-1H-benzo[d]imidazol-1-yl)-5-(hydroxymethyl)tetrahydrofuran-3,4-diol]

Reference: patent US12295940B2, “Viral inhibitors, the synthesis thereof, and intermediates thereto” (Takeda Pharmaceutical Company Limited, priority 2022, dated 2025)
